These results are taken from ChEMBL document CHEMBL4665744, “Diverse Types of Diterpenoids with an Aromatized C Ring from the Twigs of Podocarpus imbricatus” (J Nat Prod, 2020).

Broadly, the CC50 is the concentration that lowers cell viability or growth by half. As usually defined, the IC50 is the point on the concentration scale where inhibition reaches its midpoint.

The subject of data set [1] is Zika virus. Nature of the data set: Antiviral activity against Zika virus. The format is functional, organism-based.
Data set [2] in a line: Cytotoxicity activity against African green monkey Vero cells assessed as reduction in cell viability by MTT assay. In kind it is cell-based. Conditions: chlorocebus sabaeus.

Calls of active or inactive are those of the source. The rule behind the calls is not given here.

Turning to `CC(C)c1cc2c(cc1O)C[C@@H](O)[C@H]1[C@](C)(CO)CCC[C@]21C`, in data set [1], the outcome was inactive. As for `C[C@H](CO)c1cc2c(cc1O)[C@@]1(C)CCC[C@](C)(C(=O)O)[C@@H]1CC2`, in data set [1], the outcome was inactive.

`COc1c(C)c2c(c(O)c1C/C=C(\C)CCC(=O)O)C(=O)OC2` [MYCOPHENOLIC ACID]: in data set [2], the CC50 stood at 18.7 µM. In the case of `CC(C)c1cc2c(cc1O)[C@@H](O)[C@@H](O)[C@H]1[C@](C)(CO)CCC[C@]21C`, in data set [1], the IC50 came out at 2.5 µM.

Regarding `CC(C)c1c(O)ccc2c1CC[C@H]1C(C)(C)CC[C@@H](O)[C@]21C`, the result in data set [1] was inactive.
